Experimental data as given in US20170355691A1, “PESTICIDALLY ACTIVE HETEROCYCLIC DERIVATIVES WITH SULPHUR CONTAINING SUBSTITUENTS” (Syngenta Participations AG, priority 2015, published 2017).

Legend:
[1] = test system: Tetranychus urticae (two-spotted spider mite); experiment: whole plant or invertebrate; format: in vivo; conditions: foliar, 192 h
Experimental: Example B8: Activity Against Tetranychus urticae (Two-Spotted Spider Mite)
Bean leaf discs on agar in 24-well microtiter plates were sprayed with aqueous test solutions prepared from 10′000 ppm DMSO stock solutions. After drying the leaf discs were infested with a mite population of mixed ages. The samples were assessed for mortality on mixed population (mobile stages) 8 days after infestation.

[2] = test system: Diabrotica balteata (corn root worm); experiment: Activity against Diabrotica balteata, maize sprouts (Example B3); format: in vivo; conditions: 96 h, L2 larvae on maize sprouts, 4 days after infestation, read-out: effect in at least one of the two categories (mortality or growth inhibition)
Experimental: Example B3: Activity Against Diabrotica balteata (Corn Root Worm)
Maize sprouts, placed on an agar layer in 24-well microtiter plates were treated with aqueous test solutions prepared from 10′000 ppm DMSO stock solutions by spraying. After drying, the plates were infested with L2 larvae (6 to 10 per well). The samples were assessed for mortality and growth inhibition in comparison to untreated samples 4 days after infestation. The following compounds gave an effect of at least 80% in at least one of the two categories (mortality or growth inhibition) at an application rate of 200 ppm: P1.1, P1.2, P1.6, P1.7, P1.8, P1.9, P1.10, P1.13, P1.14, P1.15, P1.16, P1.17 and P1.18.

[3] = test system: Spodoptera littoralis (Egyptian cotton leaf worm); experiment: Activity against Spodoptera littoralis, cotton leaf disc spray (Example B1); format: in vivo; conditions: foliar, 72 h, L1 larvae on cotton leaf discs, 3 days after infestation, read-out: control in at least one of the three categories (mortality, anti-feedancy or growth inhibition)
Experimental: Example B1: Activity Against Spodoptera littoralis (Egyptian Cotton Leaf Worm)
Cotton leaf discs were placed on agar in 24-well microtiter plates and sprayed with aqueous test solutions prepared from 10′000 ppm DMSO stock solutions. After drying the leaf discs were infested with five L1 larvae. The samples were assessed for mortality, anti-feedant effect, and growth inhibition in comparison to untreated samples 3 days after infestation. Control of Spodoptera littoralis by a test sample is when at least one of mortality, anti-feedant effect, and growth inhibition is higher than the untreated sample. The following compounds gave an effect of at least 80% control in at least one of the three categories (mortality, anti-feedancy or growth inhibition) at an application rate of 200 ppm: P1.2, P1.3, P1.6, P1.7, P1.8, P1.9, P1.10, P1.12, P1.13, P1.14, P1.15, P1.16, P1.17 and P1.18.

[4] = test system: Plutella xylostella (diamond back moth); experiment: Activity against Plutella xylostella, artificial diet (Example B2); format: in vivo; conditions: 120 h, L2 larvae on artificial diet, 5 days after infestation, read-out: effect in at least one of the two categories (mortality or growth inhibition)
Experimental: Example B2: Activity Against Plutella xylostella (Diamond Back Moth)
24-well microtiter plates with artificial diet were treated with aqueous test solutions prepared from 10′000 ppm DMSO stock solutions by pipetting. After drying, the plates were infested with L2 larvae (10 to 15 per well). The samples were assessed for mortality and growth inhibition in comparison to untreated samples 5 days after infestation. The following compounds gave an effect of at least 80% in at least one of the two categories (mortality or growth inhibition) at an application rate of 200 ppm: P1.3, P1.6, P1.7, P1.8, P1.9, P1.13, P1.14, P1.15, P1.16, P1.17 and P1.18.

[5] = test system: Myzus persicae (green peach aphid); experiment: Activity against Myzus persicae, sunflower leaf disc spray (Example B5); format: in vivo; conditions: foliar, 144 h, mixed-age aphid population on sunflower leaf discs, 6 days after infestation
Experimental: Example B5: Activity Against Myzus persicae (Green Peach Aphid)
(§1) Sunflower leaf discs were placed on agar in a 24-well microtiter plate and sprayed with aqueous test solutions prepared from 10′000 ppm DMSO stock solutions. After drying, the leaf discs were infested with an aphid population of mixed ages. The samples were assessed for mortality 6 days after infestation.

[6] = test system: Euschistus heros (neotropical brown stink bug); experiment: Activity against Euschistus heros, soybean leaf spray (Example B7); format: in vivo; conditions: 120 h, N-2 nymphs on soybean leaf, 5 days after infestation
Experimental: Example B7: Activity Against Euschistus heros (Neotropical Brown Stink Bug)
Soybean leaf on agar in 24-well microtiter plates were sprayed with aqueous test solutions prepared from 10′000 ppm DMSO stock solutions. After drying the leaf were infested with N-2 nymphs. The samples were assessed for mortality 5 days after infestation.

[7] = test system: Bemisia tabaci (cotton white fly); experiment: Activity against Bemisia tabaci, cotton leaf disc spray (Example B6); format: in vivo; conditions: foliar, 144 h, adult white flies on cotton leaf discs, 6 days after incubation
Experimental: Example B6: Activity Against Bemisia tabaci (Cotton White Fly)
Cotton leaf discs were placed on agar in 24-well microtiter plates and sprayed with aqueous test solutions prepared from 10′000 ppm DMSO stock solutions. After drying the leaf discs were infested with adult white flies. The samples were checked for mortality 6 days after incubation.

[8] = test system: Thrips tabaci (onion thrips); experiment: Activity against Thrips tabaci, sunflower leaf disc spray (Example B9); format: in vivo; conditions: foliar, 144 h, mixed-age thrips population on sunflower leaf discs, 6 days after infestation
Experimental: Example B9: Activity Against Thrips tabaci (Onion Thrips)
as §1, with “in” for “in a”, “plates” for “plate”, “drying” for “drying,”, “a thrips” for “an aphid”

[9] = test system: Spodoptera littoralis (Egyptian cotton leaf worm); experiment: Activity against Spodoptera littoralis, systemic via lettuce roots in agar (Example B4); format: in vivo; conditions: 144 h, 12.5 ppm in agar, uptake by lettuce roots, eggs, 6 days after infestation, read-out: control in at least one of the three categories (mortality, anti-feedancy or growth inhibition)
Excerpt: Example B4: Activity Against Spodoptera littoralis (Egyptian Cotton Leaf Worm)
Test compounds were applied by pipette from 10′000 ppm DMSO stock solutions into 24-well plates and mixed with agar. Lettuce seeds were placed on the agar and the multi well plate was closed by another plate which contains also agar. After 7 days the roots have absorbed the compound and the lettuce has grown into the lid plate. The lettuce leafs were now cut off into the lid plate. Spodoptera eggs were pipetted through a plastic stencil on a humid gel blotting paper and the plate closed with it. The samples were assessed for mortality, anti-feedant effect and growth inhibition in comparison to untreated samples 6 days after infestation. The following compound gave an effect of at least 80% control in at least one of the three categories (mortality, anti-feedancy or growth inhibition) at an application rate of 12.5 ppm: P1.17 and P1.18.

SMILES	percent effect (mortality or growth inhibition) at 200 ppm [2] [%]	percent control (mortality, anti-feedant effect or growth inhibition) at 200 ppm [3] [%]	percent effect (mortality or growth inhibition) at 200 ppm [4] [%]	further results
CCSc1cc(C(F)(F)F)cnc1-n1ncc(-c2cccc(C(F)(F)F)c2)c1C [Compound P1.1, 3-ethylsulfanyl-2-[5-methyl-4-[3-(trifluoromethyl)phenyl]pyrazol-1-yl]-5-(trifluoromethyl)pyridine]	≥ 80	–	–	mortality at 200 ppm [1]: ≥ 80%
CCS(=O)(=O)c1cc(C(F)(F)F)cnc1-n1ncc(-c2cccc(C(F)(F)F)c2)c1C [Compound P1.2, 3-ethylsulfonyl-2-[5-methyl-4-[3-(trifluoromethyl)phenyl]pyrazol-1-yl]-5-(trifluoromethyl)pyridine]	≥ 80	≥ 80	–	–
CCS(=O)(=O)c1cc(C(F)(F)F)cnc1-n1cc(-c2ccc(C(F)(F)F)cc2)cn1 [Compound P1.3, 3-ethylsulfonyl-5-(trifluoromethyl)-2-[4-[4-(trifluoromethyl)phenyl]pyrazol-1-yl]pyridine]	–	≥ 80	≥ 80	–
CCSc1cc(C(F)(F)F)cnc1-n1ncc(-c2ccc(C(F)(F)F)cc2)c1C [Compound P1.4]	–	–	–	melting point: 113 to 114 °C
CCS(=O)(=O)c1cc(C(F)(F)F)cnc1-n1ncc(-c2ccc(C(F)(F)F)cc2)c1C [Compound P1.5]	–	–	–	melting point: 152 to 154 °C
CCS(=O)(=O)c1cc(C(F)(F)F)cnc1-n1cc(-c2cccc(C(F)(F)F)c2)cn1 [Compound P1.6]	≥ 80	≥ 80	≥ 80	–
CCS(=O)(=O)c1cc(C(F)(F)F)cnc1-n1cc(-c2ccc(C(F)(F)F)nc2)cn1 [Compound P1.7]	≥ 80	≥ 80	≥ 80	–
CCS(=O)(=O)c1cc(C(F)(F)F)cnc1-n1cc(-c2cc(C(F)(F)F)ccn2)cn1 [Compound P1.8]	≥ 80	≥ 80	≥ 80	–
CCS(=O)(=O)c1cc(C(F)(F)F)ccc1-n1cc(-c2cccc(C(F)(F)F)c2)cn1 [Compound P1.9]	≥ 80	≥ 80	≥ 80	–
CCS(=O)(=O)c1cc(C(F)(F)F)ccc1-n1cc(-c2cc(C(F)(F)F)ccn2)cn1 [Compound P1.10, 2-[1-[2-ethylsulfonyl-4-(trifluoromethyl)phenyl]pyrazol-4-yl]-4-(trifluoromethyl)pyridine]	≥ 80	≥ 80	–	mortality at 200 ppm [5]: ≥ 80%
CCS(=O)(=O)c1cc(C(F)(F)F)cnc1-n1cc(-c2ccc(SC(F)(F)F)cc2)cn1 [Compound P1.11]	–	–	–	melting point: 181 to 182 °C
CCS(=O)(=O)c1cc(C(F)(F)F)cnc1-n1cc(-c2cccc(SC(F)(F)F)c2)cn1 [Compound P1.12]	–	≥ 80	–	–
CCS(=O)(=O)c1cc(C(F)(F)F)ccc1-n1cc(-c2ccc(C(F)(F)F)cc2)cn1 [Compound P1.13]	≥ 80	≥ 80	≥ 80	mortality at 200 ppm [6]: ≥ 80%
CCS(=O)(=O)c1cc(C(F)(F)F)ccc1-n1ncc(-c2ccc(C(F)(F)F)cc2)c1C [Compound P1.15, 1-[2-ethylsulfonyl-4-(trifluoromethyl)phenyl]-5-methyl-4-[4-(trifluoromethyl)phenyl]pyrazole]	≥ 80	≥ 80	≥ 80	mortality at 200 ppm [7]: ≥ 80%; mortality at 200 ppm [8]: ≥ 80%; mortality at 200 ppm [5]: ≥ 80%
CCS(=O)(=O)c1cc(C(F)(F)F)ccc1-n1ncc(-c2cccc(C(F)(F)F)c2)c1C [Compound P1.16]	≥ 80	≥ 80	≥ 80	mortality at 200 ppm [7]: ≥ 80%; mortality at 200 ppm [6]: ≥ 80%; mortality at 200 ppm [5]: ≥ 80%
CCS(=O)(=O)c1cc(C(F)(F)F)ccc1-n1cc(-c2cncc(C(F)(F)F)c2)cn1 [Compound P1.17]	≥ 80	≥ 80	≥ 80	mortality at 200 ppm [7]: ≥ 80%; percent control (mortality, anti-feedant effect or growth inhibition) at 12.5 ppm [9]: ≥ 80%; mortality at 200 ppm [6]: ≥ 80%; mortality at 200 ppm [5]: ≥ 80%
CCS(=O)(=O)c1cc(C(F)(F)F)cnc1-n1cc(-c2cncc(C(F)(F)F)c2)cn1 [Compound P1.18]	≥ 80	≥ 80	≥ 80	percent control (mortality, anti-feedant effect or growth inhibition) at 12.5 ppm [9]: ≥ 80%; mortality at 200 ppm [5]: ≥ 80%
CCSc1cccnc1-n1cc(-c2ccc(C(F)(F)F)nc2)cn1 [Compound P1.19, 3-ethylsulfanyl-2-[4-[6-(trifluoromethyl)-3-pyridyl]pyrazol-1-yl]pyridine]	–	–	–	melting point: 121 to 123 °C
